{"source": "patent US4957864A", "about": "“Novel plasminogen activator and its preparation process” (Mitsui Toatsu Chemicals, Incorporated, priority 1982, dated 1990)", "molecules": {"B1": {"name": "soybean trypsin inhibitor: soybean trypsin inhibitor used as protease inhibitor (protein, UniProt P01070 25-205, looked up)", "Trypsin inhibitor A": "DFVLDNEGNPLENGGTYYILSDITAFGGIRAAPTGNERCPLTVVQSRNELDKGIGTIISSPYRIRFIAEGHPLSLKFDSFAVIMLCVGIPTEWSVVEDLPEGPAVKIGENKDAMDGWFRLERVSDDEFNNYKLVFCPQQAEDDKCGDIGISIDHDDGTRRLVVSKNKPLVVQFQKLDKESL"}}, "key": {"[1]": {"system": "insolubilized fibrin monomer", "assay": "adsorption onto fibrin-Sepharose column", "format": "binding, human"}, "fibrin [2]": {"system": "fibrin", "conditions": "M.W. 33,000 urokinase sample; cited from earlier work"}, "anti-urokinase IgG": {"system": "anti-urokinase IgG", "assay": "affinity chromatography on anti-urokinase IgG-Sepharose column", "format": "binding, goat", "excerpt": "The employed urokinase sample was identical to that analyzed in accordance with the SDS-polyacrylamide gel electrophoresis.\nThe gel was washed with a 0.02M Tris-HCl solution of pH 7.4 containing 1.0M NaCl at least 20 times in volume that of the gel."}, "fibrin [3]": {"system": "fibrin", "assay": "fibrinolytic activity by the fibrin-agar plate method, compared with urokinase (UKIU)", "format": "biochemical", "experimental": "The fibrinolytic activity of the tissue activator was compared with that of urokinase and was expressed in terms of the international unit (UKIU). […] The activity of the tissue activator was determined by measuring the lytic areas of diluted samples within the range of 120-200 mm^2. […] The enzymatic activity of the tissue activator was standardized by the enzymatic activity of urokinase and the percentage recovery of the tissue activator and its specific activity relative to UKIU/ml were measured after each of several purification stages.\nThe non-specific fibrin-resolving activity was measured on a fibrin-agar plate free of plasminogen."}, "[4]": {"molecular_target": "tissue activator obtained from human kidney (Homo sapiens, UniProt P00750)", "sequence (P00750 36-562)": "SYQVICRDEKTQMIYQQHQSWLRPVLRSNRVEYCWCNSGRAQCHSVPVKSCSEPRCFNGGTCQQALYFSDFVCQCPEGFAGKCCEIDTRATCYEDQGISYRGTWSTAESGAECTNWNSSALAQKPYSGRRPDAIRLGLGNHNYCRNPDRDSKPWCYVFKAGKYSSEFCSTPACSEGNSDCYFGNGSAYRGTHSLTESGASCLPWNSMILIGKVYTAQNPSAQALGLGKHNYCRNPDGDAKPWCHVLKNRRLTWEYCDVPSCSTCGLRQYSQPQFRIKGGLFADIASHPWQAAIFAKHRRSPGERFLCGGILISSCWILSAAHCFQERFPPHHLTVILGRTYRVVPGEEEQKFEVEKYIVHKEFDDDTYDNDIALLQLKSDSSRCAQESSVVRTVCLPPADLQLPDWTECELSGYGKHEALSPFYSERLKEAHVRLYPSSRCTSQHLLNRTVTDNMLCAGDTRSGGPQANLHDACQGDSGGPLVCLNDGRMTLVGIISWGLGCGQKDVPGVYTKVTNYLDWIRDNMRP", "assay": "biochemical", "format": "biochemical"}, "[5]": {"molecular_target": "T1, vascular plasminogen activator (Homo sapiens, UniProt P00750)", "T1 construct": "from tissue; host or cells: blood vessel wall", "T1 sequence (P00750 36-562)": "as above", "assay": "biochemical"}, "[6]": {"system": "antivascular plasminogen activator serum", "assay": "double immunodiffusion with antivascular plasminogen activator and anti-urokinase serums", "format": "binding", "excerpt": "Using the antivascular plasminogen activator and anti-urokinase serums, the antigenicities of the both activators were studied in accordance with the double immunodiffusion method. As a result, both urokinase and the vascular plasminogen activator developed individually a single precipitation curve between themselves and their corresponding anti-urokinase or antivascular plasminogen activator serum.\nIn order to study whether the activators obtained respectively from kidney tissue and the wall of a blood vessel have the same antigenicity as urokinase, the elution profile of proteins and active ingredient of the activator obtained by the antiurokinase IgG-Sepharose affinity chromatographic treatment of the purified activator of Example 1-(6) and the activator of Example 1-(3) was compared with the elution profile of urokinase. […] The protein contained in the effluents was serum albumine incorporated in the commercially available urokinase used in this experiment. […] When the partially-purified sample obtained in Example 1-(3) was poured in the same column, about 15% of the poured activity was adsorbed on the column and eluted with the glycine solution of pH 2.4. […]"}, "[7]": {"assay": "isoelectric point by polyacrylamide gel isoelectric-point electrophoresis", "format": "physicochemical", "conditions": "7.5% polyacrylamide gel, 8M urea, 1% ampholite", "experimental": "The measurement of the isoelectric point of the purified tissue activator was carried out in a 7.5% polyacrylamide gel containing 8M urea and 1% ampholite in accordance with the method proposed by Mertz et al. [Biochem. Biophys. Res. Commun. 49, 84-91 (1972)]. The sample was solubilized in an 8M urea solution containing 2 mM EDTA and 1% ampholite. Its pH was determined by the method proposed by Finlayson et al. [Anal. Biochem. 40, 292-311 (1971)]."}, "[8]": {"assay": "hydrolytic activity against chromogenic substrate S-2288", "format": "biochemical", "conditions": "activator 100 UKIU/ml; 37° C., 405 nm", "experimental": "(§1) The initial release of 7-amino-4-methylcoumarine (AMC) was measured by a fluorometer at 37° C. in a Shimadzu Fluorospectrophotometer Model RF-520. The fluorometer had been set in such a manner that a radiation of a fluorescent light of 380 nm permitted to emit an excited fluorescent light of 460 nm, and also so adjusted that a 0.1% DMSO solution containing […] gave a relative fluorescent unit of 1.0. The hydrolytic activity of the purified tissue activator was measured using a chromogenic substrate, by adding 200 μl of a tissue activator sample, 200 μl of a 0.1M Tris-HCl solution of pH 8.0 containing 0.1M NaCl and 0.02% Tween 80, and 200 μl of a 3 mM S-2251 solution or a 1 mM S-2288 solution. The initial release of p-nitroaniline was measured by a spectrophotometer at 405 nm and 37° C. in a glass cell. The initial velocity of the hydrolytic activity was expressed in terms of ΔmA/min for the chromogenic substrate and Δ%/min for the fluorescent substrate.\nFor tissue plasminogen activator, H-D-isoleucyl-L-prolyl-L-arginine-p-nitroanilide dihydrochloride (S-2288)."}, "[9]": {"assay": "hydrolytic activity against chromogenic substrate S-2251", "format": "biochemical", "conditions": "activator 100 UKIU/ml; 37° C., 405 nm", "experimental": "as §1\nFor plasmin, H-D-valyl-L-leucyl-L-lysine-p-nitroanilide dihydrochloride (S-2251);"}, "[10]": {"assay": "storage and pH stability of activity in buffer solution", "format": "physicochemical", "experimental": "The same result was obtained even when 1M NH4 SCN or 0.02% Tween 80 and 0.1M NaCl were incorporated in the buffer solution.\nThe stability of the plasminogen activator of the present invention was investigated in the pH\nhours in a buffer solution range of 1-10 at 4° C. for 24 containing 0.5M NaCl and 0.02% Tween 80."}, "[11]": {"assay": "hydrolytic activity against fluorescent 4-methylcoumaryl-7-amide substrates", "format": "biochemical", "conditions": "3093-V, 3095-V, 3096-V, 3097-V", "experimental": "The thus-purified tissue activator was tested with various fluorescent substrates by adding 50 μl of the tissue activator sample in a 0.02M Tris-HCl solution of pH 8.0 containing 0.1M NaCl and 0.02% Tween 80 and 2.0 ml of the substrate in the same buffer solution. The following materials were used as the fluorescent substrates:\nBoc-L-valyl-L-prolyl-L-arginine-4-methyl-coumaryl-7-amide;\nCarbobenzoxy-L-phenylalanyl-L-arginine 4-methylcoumaryl-7-amide;\nL-prolyl-L-phenylalanyl-L-arginine-4-methylcoumaryl-7-amide; and\nGlutaryl-glycyl-L-arginine-4-methylcoumaryl-7-amide.\nas §1, with “The initial velocity of the hydrolytic activity was expressed in terms of ΔmA/min for the chromogenic substrate and Δ%/min for the fluorescent substrate.” left out"}, "[12]": {"conditions": "Aprotinin 50 KIU/ml, iodoacetamide 10 mM, soybean trypsin 50 mg/ml, L-arginine 100 mM, diisopropyl fluorophosphate 5 mM, 37° C., 1 hour"}, "[13]": {"conditions": "diisopropyl fluorophosphate 5 mM, L-arginine 0.1M, Trasylol 50 KIU/ml, iodoacetamide 10 mM, soybean trypsin inhibitor 50 μg/ml"}}, "note": "Read-outs that look alike come from different tables or passages of the source."}
{"molecule": "urokinase [reference compound]", "values": [{"measurement": "adsorption onto fibrin-Sepharose column", "setting": "[1]", "result": "passed through the column"}, {"measurement": "specific activity of high-purity human urokinase used as immunogen", "setting": "fibrin [2]", "result": "202,400 IU/mg"}, {"measurement": "adsorption / affinity for anti-urokinase IgG-Sepharose", "setting": "anti-urokinase IgG", "result": "adsorbed strongly"}, {"measurement": "lytic area on fibrin-agar plate", "setting": "fibrin [3]; 10 μl of a 1 IU/ml solution", "result": 156, "unit": "mm^2"}]}
{"molecule": "NC(=O)CI", "note": "[iodoacetamide]", "values": [{"measurement": "inhibition of amide-decomposing activity against S-2288", "setting": "[4]; [12]", "result": "not inhibited"}, {"measurement": "activity inhibition of the vascular plasminogen activator", "setting": "[5]; [13]", "result": "no changes"}]}
{"molecule": "Aprotinin [Trasylol]", "values": [{"measurement": "inhibition of amide-decomposing activity against S-2288", "setting": "[4]; [12]", "result": "not inhibited"}, {"measurement": "activity inhibition of the vascular plasminogen activator", "setting": "[5]; [13]", "result": "no changes"}]}
{"molecule": "vascular plasminogen activator: purified plasminogen activator from human blood vessel walls; single-chain glycoprotein, molecular weight about 70,000", "values": [{"measurement": "adsorption / affinity for anti-urokinase IgG-Sepharose", "setting": "anti-urokinase IgG", "result": "did not show any affinity"}, {"measurement": "crosslinking of precipitation curves / with antiserum in immunodiffusion", "setting": "[6]", "result": "no crosslinking was observed"}, {"measurement": "isoelectric point (pI) of the main band", "setting": "[7]", "result": 7.8}, {"measurement": "Specific activity", "setting": "fibrin [3]; Table 1, purification stages of tissue plasminogen activator from blood vessels", "result": "57,400 UKIU/mg"}, {"measurement": "specific activity of the final plasminogen activator", "setting": "fibrin [3]; blood vessel derived, after final purification", "result": "45,000-80,000 IU/mg proteins"}]}
{"molecule": "N=C(N)NCCC[C@H](N)C(=O)O", "note": "[L-arginine]", "values": [{"measurement": "inhibition at 100000 µM", "setting": "[4]; read-out: inhibition of amide-decomposing activity against S-2288", "result": "≤ 26", "unit": "%"}, {"measurement": "inhibition at 50 µg/mL", "setting": "[5]; read-out: activity inhibition of the vascular plasminogen activator", "result": 20, "unit": "%"}]}
{"molecule": "kidney-originated activator: purified tissue plasminogen activator obtained from human kidney in Example 1-(6); molecular weight about 72,000", "values": [{"measurement": "adsorption onto fibrin-Sepharose column", "setting": "[1]", "result": "adsorbed completely"}, {"measurement": "total poured activity recovered by elution with 2M NH4 SCN from fibrin-Sepharose", "setting": "[1]", "result": "at least 90%"}, {"measurement": "hydrolytic activity against S-2288", "setting": "[8]", "result": "70 ΔmA/min"}, {"measurement": "adsorption / affinity for anti-urokinase IgG-Sepharose", "setting": "anti-urokinase IgG", "result": "passed through the column without adsorption"}, {"measurement": "crosslinking of precipitation curves / with antiserum in immunodiffusion", "setting": "[6]", "result": "ready crosslinking reaction"}, {"measurement": "hydrolytic activity against S-2251", "setting": "[9]", "result": "88 ΔmA/min"}, {"measurement": "pH range in which the activator was stable", "setting": "[10]; 4° C., 24 hours, buffer containing 0.5M NaCl and 0.02% Tween 80, pH 1-10 tested", "result": "2-10"}, {"measurement": "activity after storage", "setting": "[10]; 4° C., buffer solution of pH 7.4, 2 weeks", "result": "did not give any activity reduction"}, {"measurement": "reduction of activity", "setting": "[10]; pH 1.0, 4° C., 24 hours, 0.5M NaCl and 0.02% Tween 80", "result": 70, "unit": "%"}, {"measurement": "isoelectric point (pI) of the main band", "setting": "[7]", "result": 8.2}, {"measurement": "Specific activity", "setting": "fibrin [3]; Table 2, purification stages of tissue plasminogen activator obtained from kidneys", "result": "25,700 UKIU/mg"}, {"measurement": "specific activity relative to human kidney dried with acetone", "setting": "fibrin [3]; highly purified form", "result": "30,000-45,000 times"}, {"measurement": "hydrolytic activity to substrates other than S-2251 and S-2288", "setting": "[11]", "result": "did not show hydrolytic activity"}]}
{"molecule": "B1", "values": [{"measurement": "inhibition of amide-decomposing activity against S-2288", "setting": "[4]", "result": "not inhibited"}, {"measurement": "activity inhibition of the vascular plasminogen activator", "setting": "[5]", "result": "no changes"}]}
